{"source": "paper PMC6934184", "about": "“Selective DNA-PKcs inhibition extends the therapeutic index of localized radiotherapy and chemotherapy” (The Journal of Clinical Investigation, 2019)", "target": "T1, MAPK3 (ERK1) (Homo sapiens, UniProt P27361)", "T1 construct": "purchased Thermo Fisher Scientific (Life Technologies) SelectScreen", "T1 sequence (P27361 whole entry)": "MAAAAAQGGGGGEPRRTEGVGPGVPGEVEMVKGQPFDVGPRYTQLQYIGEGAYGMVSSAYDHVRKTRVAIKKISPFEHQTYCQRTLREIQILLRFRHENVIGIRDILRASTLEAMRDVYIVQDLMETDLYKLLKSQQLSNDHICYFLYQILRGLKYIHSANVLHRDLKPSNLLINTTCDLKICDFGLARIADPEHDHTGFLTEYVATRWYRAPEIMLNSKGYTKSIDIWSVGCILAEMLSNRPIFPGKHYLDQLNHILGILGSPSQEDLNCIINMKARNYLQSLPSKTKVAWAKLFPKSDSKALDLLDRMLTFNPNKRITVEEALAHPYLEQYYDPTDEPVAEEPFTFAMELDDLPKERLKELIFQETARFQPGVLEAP", "assay": "SelectScreen Z'LYTE", "assay_type": "biochemical", "procedure,_shortened": "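Percent values come from Thermo SelectScreen profiling of NU5455, combining activity and binding assays. CSF1R was run in Z'LYTE format at Km app ATP, and CAMK1 in Adapta format with ATP listed at 10.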", "data": [{"smiles": "CN(C(=O)CN1CCOCC1)c1ccc2sc3c(-c4cccc5c(=O)cc(N6CC7CCC(C6)O7)oc45)cccc3c2c1", "note": "[NU5455]", "values": [{"measurement": "inhibition at 1 µM", "result": 9.5, "unit": "%"}]}]}
